{"source": "patent US4152519A", "about": "“16-Hydroxy aspidospermidines and a process for their production” (Parcor, priority 1976, dated 1979)", "key": {"[1]": {"settings": "in vivo", "text": "2. the chronic toxicity (rats and dogs),\n4. the local and general tolerance,\n5. the possible teratogenic effects, […]"}, "[2]": {"system": "\"spatial disorientation\" syndrome", "assay": "effect on a \"spatial disorientation\" syndrome in the rat (aquatic labyrinth after electric shock)", "type": "in vivo, rat (Wistar AF-Han)", "method": "This study was carried out using male rats of the Wistar AF-Han EOPS strains weighing about 160 g and about 6 to 7 weeks old.\nAfter being guided through once by the experimenter, the rats are first of all subjected to 4 tests in 2 days in an aquatic labyrinth described by GIURGEA and MOURAVIEFFLESUISSE (J. Pharmacol. PARIS, 1972, 3, 1, 17-30).\nOn the 3rd day, the rats are subjected to a supramaximal electric shock delivered by a Neurovac controlled by a CRC OC 342 oscillograph; the electric shock has the following characteristics: 100 Hz, 0.5 ms, 1 second, 60 volts.\nAfter passing through the labyrinth 20 minutes after the electric shock, the rats are given their treatment by oesophageal tube. Two tests are carried out 40 and 100 minutes after treatment, i.e. 60 and 120 minutes after the electric shock, and the time taken to pass through the labyrinth by each animal is timed; the number of errors is also noted.\nThe rats are put on a diet of water for 18 hours after passing through for the 4th time. The compound is administered by intragastric route in a volume of 5 ml/kg.\ntime taken to leave the aquatic labyrinth;\naverage number of errors made in an effort to leave the labyrinth;\npercentage of \"normal\" subjects, i.e. rats passing through the labyrinth with only 0-4 errors."}, "[3]": {"assay": "acute toxicity in the rat (LD50, SPEARMAN-KARBER method)", "settings": "in vivo", "method": "(§1) The results of the study of the acute toxicity were as follows, the tests having been carried out on the mouse and rat, whilst the product was administered intravenously, subcutaneously and by oesophageal tube. The doses studied were administered in a volume of 1 ml/100 g of body weight, whilst each dose was administered to 5 males and 5 females; the LD 50 was investigated using the SPEARMAN-KARBER method."}, "low-pressure hypoxia": {"system": "low-pressure hypoxia", "assay": "mortality caused by low-pressure hypoxia in the mouse", "type": "in vivo, mouse (NMRI-Han)", "parameters": "survival time, average and standard deviation: unit not given here", "method": "An artificial altitude was created by placing the mouse in a sealed box and progressively reducing the pressure to 190 mm of mercury (equivalent to about 10,000 meters altitude) using a CEM-type pump, so that the desired altitude is obtained in 1 minute 10 seconds on average. A stopwatch is then started and the exact time when the chest movements cease is noted. Any mouse whose survival time is more than twice the average value noted in the corresponding \"solvent control\" series is regarded as protected.\nThe ED50 was calculated from the percentage of \"protected\" mice using the graphical method indicated by LITCHFIELD and WILCOXON (J. Pharm. Exp. Ther., 1949, 96, 99-113).\nThe compound was administered by intraperitoneal route 20 minutes before the altitude is artifically created; whatever the dose, the volume injected was always equal to 20 ml/kg.\nThe effects were also examined after administration by oesophageal tube 60 minutes before the test, whilst the volume administered is always 20 ml/kg.\nThe entire study was carried out on adult male EOPS mice (4 to 5 weeks old) of the NMRI-Han strain, divided into random test groups after being fed only water for 18 hours."}, "[4]": {"system": "cortical electrogenesis disrupted by the presence of a unilateral cerebral oedema", "assay": "effect on cortical electrogenesis disrupted by unilateral cerebral oedema in the unanaesthetised rabbit", "type": "in vivo", "method": "48 hours before use, the animal's cranium is exposed and stainless steel electrodes are screwed on so as to contact the dura mater on the frontal and occipital lobes on both sides of the median and transverse sutures. The electrocorticogram is recorded on a REEGA MINI HUIT TR electroencephalograph mounted transversely and longitudinally, whilst a 4th channel serves to record the electrocardiogram. Moreover, a flap of bone 7 to 10 mm in diameter was removed on one side, and this operation was not found, 48 hours later, to have caused any appreciable disruption of the electrical activity of the cortex.\nAn oedema was then produced by removing the dura mater and arachnoid; it usually takes the form of a hernia of the cortex. The treatment is then given and the electrocorticographic trace is monitored every hour during and after administration of the test products, then 24 and 48 hours later.\nThe action of the test products is assessed on the basic electrogenesis, particularly on the presence of slow waves and on the signs of cortical reactivity to two exteroceptive stimuli: a receptive stimulus (electrical tone lasting 2 seconds) and a nociceptive stimulation of the nerve endings in the skin by pinching the dorsal skin using KOCHER forceps.\nThe compounds are administered by either intravenous or intragastric route."}, "[5]": {"assay": "stability in acidic medium", "type": "physicochemical"}, "[6]": {"assay": "acute toxicity in the mouse (LD50, SPEARMAN-KARBER method)", "settings": "in vivo", "method": "as §1"}, "[7]": {"settings": "50 mg/kg group, 20 minutes after electric shock (before treatment)"}, "[8]": {"settings": "50 mg/kg group, before electric shock (before treatment)"}, "[9]": {"settings": "50 mg/kg intragastric, 60 minutes after electric shock (40 minutes after treatment)"}, "[10]": {"settings": "50 mg/kg intragastric, 120 minutes after electric shock (100 minutes after treatment)"}, "[11]": {"settings": "100 mg/kg group, 20 minutes after electric shock (before treatment)"}, "[12]": {"settings": "100 mg/kg group, before electric shock (before treatment)"}, "[13]": {"settings": "100 mg/kg intragastric, 60 minutes after electric shock (40 minutes after treatment)"}, "[14]": {"settings": "100 mg/kg intragastric, 120 minutes after electric shock (100 minutes after treatment)"}}, "data": [{"compound": "CCC12CCCN3CCC4(C(=Nc5ccccc54)C(O)(C(=O)OC)C1)C32", "note": "(single isomer, unassigned) [the compound]", "values": [{"measurement": "tolerance", "setting": "[1]", "value": "tolerated well both orally and by parenteral or intramuscular route, without causing local or general reactions"}, {"measurement": "average number of errors", "setting": "[2]; [7]", "value": 23.4}, {"measurement": "average time taken to leave the aquatic labyrinth", "setting": "[2]; [7]", "value": 186, "unit": "s"}, {"measurement": "percentage of \"normal\" subjects (0-4 errors)", "setting": "[2]; [7]", "value": 0, "unit": "percentage"}, {"measurement": "average number of errors", "setting": "[2]; [8]", "value": 3.4}, {"measurement": "average time taken to leave the aquatic labyrinth", "setting": "[2]; [8]", "value": 39, "unit": "s"}, {"measurement": "percentage of \"normal\" subjects (0-4 errors)", "setting": "[2]; [8]", "value": 80, "unit": "percentage"}, {"measurement": "average number of errors", "setting": "[2]; [9]", "value": 15.2}, {"measurement": "average time taken to leave the aquatic labyrinth", "setting": "[2]; [9]", "value": 96, "unit": "s"}, {"measurement": "percentage of \"normal\" subjects (0-4 errors)", "setting": "[2]; [9]", "value": 28, "unit": "percentage"}, {"measurement": "average number of errors", "setting": "[2]; [10]", "value": 8.9}, {"measurement": "average time taken to leave the aquatic labyrinth", "setting": "[2]; [10]", "value": 68, "unit": "s"}, {"measurement": "percentage of \"normal\" subjects (0-4 errors)", "setting": "[2]; [10]", "value": 52, "unit": "percentage"}, {"measurement": "average number of errors", "setting": "[2]; [11]", "value": 22.6}, {"measurement": "average time taken to leave the aquatic labyrinth", "setting": "[2]; [11]", "value": 168, "unit": "s"}, {"measurement": "percentage of \"normal\" subjects (0-4 errors)", "setting": "[2]; [11]", "value": 0, "unit": "percentage"}, {"measurement": "average number of errors", "setting": "[2]; [12]", "value": 3.4}, {"measurement": "average time taken to leave the aquatic labyrinth", "setting": "[2]; [12]", "value": 37, "unit": "s"}, {"measurement": "percentage of \"normal\" subjects (0-4 errors)", "setting": "[2]; [12]", "value": 77, "unit": "percentage"}, {"measurement": "average number of errors", "setting": "[2]; [13]", "value": 13.9}, {"measurement": "average time taken to leave the aquatic labyrinth", "setting": "[2]; [13]", "value": 103, "unit": "s"}, {"measurement": "percentage of \"normal\" subjects (0-4 errors)", "setting": "[2]; [13]", "value": 17, "unit": "percentage"}, {"measurement": "average number of errors", "setting": "[2]; [14]", "value": 8.9}, {"measurement": "average time taken to leave the aquatic labyrinth", "setting": "[2]; [14]", "value": 80, "unit": "s"}, {"measurement": "percentage of \"normal\" subjects (0-4 errors)", "setting": "[2]; [14]", "value": 47, "unit": "percentage"}, {"measurement": "recovery of memory", "setting": "[2]; oral route, conclusion", "value": "accelerates the recovery of memory already instilled"}, {"measurement": "LD50 at 72 h", "setting": "[3]; iv", "value": 63.4, "unit": "mg/kg"}, {"measurement": "LD50 at 72 h", "setting": "[3]; po", "value": 777, "unit": "mg/kg"}, {"measurement": "LD50 at 72 h", "setting": "[3]; sc", "value": 126, "unit": "mg/kg"}, {"measurement": "survival time, average and standard deviation", "setting": "low-pressure hypoxia; 2.5 mg/kg i.p., 20 minutes before altitude", "value": "88.4 ± 7.01"}, {"measurement": "survival time, average and standard deviation", "setting": "low-pressure hypoxia; 5.0 mg/kg i.p., 20 minutes before altitude", "value": "108.5 ± 20.22"}, {"measurement": "survival time, average and standard deviation", "setting": "low-pressure hypoxia; 10.0 mg/kg i.p., 20 minutes before altitude", "value": "155.7 ± 30.42"}, {"measurement": "survival time, average and standard deviation", "setting": "low-pressure hypoxia; 15 mg/kg i.p., 20 minutes before altitude", "value": "179.6 ± 32.07"}, {"measurement": "survival time, average and standard deviation", "setting": "low-pressure hypoxia; 20 mg/kg i.p., 20 minutes before altitude", "value": "275.4 ± 39.77"}, {"measurement": "survival time, average and standard deviation", "setting": "low-pressure hypoxia; 30 mg/kg i.p., 20 minutes before altitude", "value": "308.5 ± 35.65"}, {"measurement": "survival time, average and standard deviation", "setting": "low-pressure hypoxia; 50 mg/kg p.o., 60 minutes before test", "value": "122.6 ± 11.75"}, {"measurement": "survival time, average and standard deviation", "setting": "low-pressure hypoxia; 100 mg/kg p.o., 60 minutes before test", "value": "186.8 ± 25.70"}, {"measurement": "survival time, average and standard deviation", "setting": "low-pressure hypoxia; 150 mg/kg p.o., 60 minutes before test", "value": "179.7 ± 20.23"}, {"measurement": "survival time, average and standard deviation", "setting": "low-pressure hypoxia; 200 mg/kg p.o., 60 minutes before test", "value": "287.0 ± 25.58"}, {"measurement": "survival time, average and standard deviation", "setting": "low-pressure hypoxia; 250 mg/kg p.o., 60 minutes before test", "value": "306.5 ± 29.46"}, {"measurement": "survival time, average and standard deviation", "setting": "low-pressure hypoxia; 300 mg/kg p.o., 60 minutes before test", "value": "281.6 ± 30.61"}, {"measurement": "protection from the toxic effects of artificial altitude", "setting": "low-pressure hypoxia; regardless of the route of administration", "value": "makes it possible to protect the mouse from the toxic effects of artificial altitude"}, {"measurement": "effect on the development of electrogenesis in the cortex disrupted by unilateral cerebral oedema", "setting": "[4]; conclusion, unanaesthetised rabbit", "value": "beneficial effect"}, {"measurement": "increase of the value of the \"R\" index", "setting": "[4]; intragastric, 5 mg/kg", "value": "~30", "unit": "%"}, {"measurement": "value of the \"R\" index", "setting": "[4]; intragastric, 10 mg/kg, during the 8 hours following ingestion", "value": "a clear improvement in the value of the \"R\" index"}, {"measurement": "activity with regard to oedema symptoms (spontaneous electrogenesis and duration of alert reactions)", "setting": "[4]; intravenous, 0.5 mg, 1 mg and 2 mg/kg", "value": "has a therapeutic acitivity with regard to oedema symptoms"}, {"measurement": "stability in an acidic medium", "setting": "[5]", "value": "unstable in an acidic medium"}, {"measurement": "LD50 at 72 h", "setting": "[6]; iv", "value": 86, "unit": "mg/kg"}, {"measurement": "LD50 at 72 h", "setting": "[6]; po", "value": 860, "unit": "mg/kg"}, {"measurement": "LD50 at 72 h", "setting": "[6]; sc", "value": 176, "unit": "mg/kg"}]}]}
